Assay [1] deals with SB.msgc-1. Description: viability at highest tested concentration (MAXR) relative to DMSO; higher = less cytotoxic. Particulars: SB.msgc-1 (sporadic gastric cancer). A digest of the protocol:
(§1)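 Using a pintool, 23 nL of compound in DMSO was transferred at 11 threefold-diluted concentrations onto patient-derived gastric cancer cells, hereditary or sporadic, plated at 500 cells in 5 μL medium per 1536 well. CellTiter-Glo luminescence was read after 48 h. Each value is viability normalised to DMSO, either at the highest concentration or as trapezoidal area under the curve.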

Assay [2] concerns SB.mhdgc-1. The assay is described as above. Particulars: SB.mhdgc-1 (hereditary c.1380delA CDH1 gastric cancer). The method in brief:
as §1

Assay [3] has as its system SB.msgc-1. Kind of assay: area under the dose-response curve of % viability (trapezoidal, 11 doses) (% viability x log10 concentration); higher = less cytotoxic. Particulars: SB.msgc-1 (sporadic gastric cancer). A digest of the protocol:
as §1

In assay [4] the test system is SB.mhdgc-1. The description is as above. Particulars: SB.mhdgc-1 (hereditary c.1380delA CDH1 gastric cancer). A digest of the protocol: as §1

SMILES strings stand for the structures.

For orientation: viability means a read-out of living cells in per cent, often relative to untreated cells.

On to `CC[C@@]1(O)C(=O)OCC/2=C1/C=C3\N(CC4=CC5=CC(=CC=C5N=C34)O)C2=O` [10-hydroxycamptothecin] (top concentration 46.0829 µM), for which the values for the viability in the assay with SB.msgc-1 [1] and with SB.mhdgc-1 [2] were 23.5% and 57.5%, respectively. Moreover, the “area under the dose-response curve” value is 327 in the assay with SB.msgc-1 [3] and 285 with SB.mhdgc-1 [4].
The like results for `COc1cc(F)c(F)c(Nc2ccc(I)cc2F)c1N[S+](=O)([O-])C1(C[C@H](O)CO)CC1` [RDEA-119] (top concentration 46.0829 µM) were, in that order, 59.3%, 33.3%, 484 and 443.
In the case of `CCCCCCCCCCCCCCCC(=O)OC[C@@H](NC(=O)C(Cl)Cl)[C@H](O)c1ccc([N+](=O)[O-])cc1` [Chloramphenicol Palmitate] (top concentration 46.0829 µM), the values for the viability in the assay on SB.msgc-1 [1] and in the assay on SB.mhdgc-1 [2] were 126% and 103%, respectively. The “area under the dose-response curve” value in the assay with SB.msgc-1 [3] turned out to be 514; in the assay with SB.mhdgc-1 [4], 496.
The like results for `CC(C)OC(=O)CCC/C=C\C[C@@H]1[C@@H](/C=C/[C@@H](O)COc2cccc(C(F)(F)F)c2)[C@H](O)C[C@@H]1O` [Travoprost] (top concentration 46.0829 µM) were, in that order, 97%, 70.6%, 535 and 523.
The like results for `CN1CC[C@H]([C@@H](O)C1)C2=C(O)C=C(O)C3=C2O\C(=C/C3=O)C4=CC=CC=C4Cl` (top concentration 46.0829 µM) were, in that order, 45.6%, 53.4%, 325 and 299.
The like results for `COc1c(N2C[C@@H]3CCCN[C@@H]3C2)c(F)cc2c(=O)c(C(=O)O)cn(C3CC3)c12.Cl.O` [Moxifloxacin hydrochloride] (top concentration 46.0829 µM) were, in that order, 67.6%, 92.9%, 507 and 560.
Take `CNC(=O)N1\N=C(\C2=CC=C(N)C=C2)C3=CC4=C(OCO4)C=C3CC1C` (stereo not drawn) (top concentration 46.0829 µM): the viability in the assay with SB.msgc-1 [1] is 42.3%; in the assay with SB.mhdgc-1 [2] it was 72.1%. Moreover, the “area under the dose-response curve” value with SB.msgc-1 [3] amounted to 489; in the assay on SB.mhdgc-1 [4], 476.
For `O=C(NC[C@H](O)CO)c1ccncc1Nc1ccc(I)cc1F` [Pimasertib] (top concentration 46.0829 µM) the same measures were 67.1%, 34.6%, 459 and 396.
For `C=C1/C(=C/C=C2\CCCC3(C)[C@@H]([C@H](C)/C=C/C=C/C(O)(CC)CC)CC[C@@H]23)C[C@@H](O)C[C@@H]1O` (stereo partly drawn) [Seocalcitol] (top concentration 46.0829 µM) the same measures were 4.45%, 31.7%, 429 and 460.
For `C=C[C@H]1CN2CCC1C[C@@H]2C(O)c1ccnc2ccc(OC)cc12` (stereo partly drawn) [Quinidine] (top concentration 46.0829 µM), the viability in the assay with SB.msgc-1 [1] worked out at 104%; in the assay on SB.mhdgc-1 [2] it was 75.6%. In addition, the “area under the dose-response curve” value in the assay on SB.msgc-1 [3] is 523; with SB.mhdgc-1 [4], 599.
In the case of `N#CCNC(=O)c1ccc(-c2ccnc(Nc3ccc(N4CCOCC4)cc3)n2)cc1` [CYT387] (top concentration 46.0829 µM), the viability amounted to 26.9% with SB.msgc-1 [1] and 47.3% in the assay on SB.mhdgc-1 [2]. The “area under the dose-response curve” value in the assay with SB.msgc-1 [3] is 474; in the assay with SB.mhdgc-1 [4], 534.
For `C[N+]1(C)[C@@H]2C[C@@H](OC(=O)[C@H](CO)c3ccccc3)C[C@H]1[C@@H]1O[C@@H]12.[Br-]` [Methscopolamine bromide] (top concentration 46.0829 µM) the same measures were 133%, 98.7%, 578 and 496.
On to `C[C@H](NC(=O)/C(C#N)=C/c1cccc(Br)n1)c1ccccc1` [WP-1066] (top concentration 46.0829 µM), for which the viability in the assay on SB.msgc-1 [1] stood at 7.12%; in the assay with SB.mhdgc-1 [2], 28.2%. In addition, the “area under the dose-response curve” value stood at 408 in the assay with SB.msgc-1 [3] and 431 with SB.mhdgc-1 [4].
For `CC(=O)Nc1ccc(O)cc1` [Acetaminophen] (top concentration 46.0829 µM) the same measures were 105%, 98.4%, 578 and 492.
The like results for `CCC(C)N1\N=C/N(C1=O)C2=CC=C(C=C2)N3CCN(CC3)C4=CC=C(OC[C@H]5CO[C@@](C[N]6C=NC=N6)(O5)C7=CC=C(Cl)C=C7Cl)C=C4` (stereo partly drawn) [Itraconazole] (top concentration 46.0829 µM) were, in that order, 57.9%, 62.2%, 464 and 472.
The like results for `COc1nc(C)cnc1N[S+](=O)([O-])c1cccnc1-c1ccc(-c2nnco2)cc1` [Zibotentan] (top concentration 46.0829 µM) were, in that order, 107%, 99.7%, 589 and 547.
In the case of `COc1nc(-c2ccc3c(c2)OCO3)n(-c2ccc(NC(=O)CSc3ccccc3)cc2)n1` [Secin H3] (top concentration 46.0829 µM), the viability in the assay on SB.msgc-1 [1] was determined as 109%; in the assay with SB.mhdgc-1 [2], 97.3%. In addition, the “area under the dose-response curve” value in the assay with SB.msgc-1 [3] is 586; in the assay with SB.mhdgc-1 [4], 539.

The record behind these values is the supplement of paper PMC5412046.
